{"source": "ChEMBL document CHEMBL1671742", "about": "“Overexpression of the adeB gene in clinical isolates of tigecycline-nonsusceptible Acinetobacter baumannii without insertion mutations in adeRS” (Antimicrob Agents Chemother, 2010)", "format_in_all_cases": "functional", "key": {"[1]": {"tested_on": "Acinetobacter baumannii", "assay": "Antibacterial activity against intI1-positive tigecycline-resistant Acinetobacter baumannii AB118 with PFGE subgroup B2 containing carbapenemase OXA-23 and OXA-51 by Etest"}, "[2]": {"tested_on": "Acinetobacter baumannii", "assay": "Antibacterial activity against intI1-positive tigecycline-resistant Acinetobacter baumannii AB113 with PFGE subgroup B1 containing carbapenemase OXA-23 and OXA-51 by Etest"}, "[3]": {"tested_on": "Acinetobacter baumannii", "assay": "Antibacterial activity against intI1-positive tigecycline-resistant Acinetobacter baumannii AB097 with PFGE subgroup B1 containing carbapenemase OXA-23 and OXA-51 by Etest"}, "[4]": {"tested_on": "Acinetobacter baumannii", "assay": "Antibacterial activity against intI1-positive tigecycline-resistant Acinetobacter baumannii AB134 with PFGE subgroup A2 containing carbapenemase OXA-23 and OXA-51 by Etest"}, "[5]": {"tested_on": "Acinetobacter baumannii", "assay": "Antibacterial activity against intI1-positive tigecycline-resistant Acinetobacter baumannii AB173 with PFGE subgroup B1 containing carbapenemase OXA-23 and OXA-51 by Etest"}, "[6]": {"tested_on": "Acinetobacter baumannii", "assay": "Antibacterial activity against intI1-positive tigecycline-susceptible Acinetobacter baumannii AB018 with PFGE subgroup G containing carbapenemase OXA-58 and OXA-51 by Etest"}, "[7]": {"tested_on": "Acinetobacter baumannii", "assay": "Antibacterial activity against intI1-positive tigecycline-intermediate Acinetobacter baumannii AB127 with PFGE subgroup I containing carbapenemase OXA-23 and OXA-51 by Etest"}, "[8]": {"tested_on": "Acinetobacter baumannii", "assay": "Antibacterial activity against intI1-negative tigecycline-intermediate Acinetobacter baumannii AB098 with PFGE subgroup F containing carbapenemase OXA-23 and OXA-51 by Etest"}, "[9]": {"tested_on": "Acinetobacter baumannii", "assay": "Antibacterial activity against intI1-positive tigecycline-intermediate Acinetobacter baumannii AB166 with PFGE subgroup A3 containing carbapenemase OXA-51 by Etest"}, "[10]": {"tested_on": "Acinetobacter baumannii", "assay": "Antibacterial activity against intI1-positive tigecycline-susceptible Acinetobacter baumannii AB039 with PFGE subgroup B1 containing carbapenemase OXA-23 and OXA-51 by Etest"}, "[11]": {"tested_on": "Acinetobacter baumannii", "assay": "Antibacterial activity against intI1-positive tigecycline-resistant Acinetobacter baumannii AB106 with PFGE subgroup B1 containing carbapenemase OXA-23 and OXA-51 by Etest"}, "[12]": {"tested_on": "Acinetobacter baumannii", "assay": "Antibacterial activity against intI1-positive tigecycline-resistant Acinetobacter baumannii AB125 with PFGE subgroup A1 containing carbapenemase OXA-23 and OXA-51 by Etest"}, "[13]": {"tested_on": "Acinetobacter baumannii", "assay": "Antibacterial activity against intI1-positive tigecycline-resistant Acinetobacter baumannii AB168 with PFGE subgroup A1 containing carbapenemase OXA-23 and OXA-51 by Etest"}, "[14]": {"tested_on": "Acinetobacter baumannii", "assay": "Antibacterial activity against intI1-positive tigecycline-resistant Acinetobacter baumannii AB096 with PFGE subgroup B1 containing carbapenemase OXA-23 and OXA-51 by Etest"}, "[15]": {"tested_on": "Acinetobacter baumannii", "assay": "Antibacterial activity against intI1-positive tigecycline-intermediate Acinetobacter baumannii AB099 with PFGE subgroup H containing carbapenemase OXA-23 and OXA-51 by Etest"}, "[16]": {"tested_on": "Acinetobacter baumannii", "assay": "Antibacterial activity against intI1-positive tigecycline-susceptible Acinetobacter baumannii AB110 with PFGE subgroup C containing carbapenemase OXA-51 by Etest"}, "[17]": {"tested_on": "Acinetobacter baumannii", "assay": "Antibacterial activity against intI1-positive tigecycline-susceptible Acinetobacter baumannii AB095 with PFGE subgroup E containing carbapenemase OXA-23 and OXA-51 by Etest"}}}
{"smiles": "C[C@@H](O)[C@H]1C(=O)N2C(C(=O)O)=C(SCCNC=N)C[C@H]12", "note": "[IMIPENEM ANHYDROUS]", "values": [{"measurement": "MIC", "setting": "[1]", "value": "> 32", "unit": "µg/mL"}, {"measurement": "MIC", "setting": "[2]", "value": 32, "unit": "µg/mL"}, {"measurement": "MIC", "setting": "[3]", "value": "> 32", "unit": "µg/mL"}, {"measurement": "MIC", "setting": "[4]", "value": "> 32", "unit": "µg/mL"}, {"measurement": "MIC", "setting": "[5]", "value": 32, "unit": "µg/mL"}, {"measurement": "MIC", "setting": "[6]", "value": 8, "unit": "µg/mL"}, {"measurement": "MIC", "setting": "[7]", "value": 32, "unit": "µg/mL"}, {"measurement": "MIC", "setting": "[8]", "value": "> 32", "unit": "µg/mL"}, {"measurement": "MIC", "setting": "[9]", "value": 6, "unit": "µg/mL"}, {"measurement": "MIC", "setting": "[10]", "value": "> 32", "unit": "µg/mL"}, {"measurement": "MIC", "setting": "[11]", "value": "> 32", "unit": "µg/mL"}, {"measurement": "MIC", "setting": "[12]", "value": "> 32", "unit": "µg/mL"}, {"measurement": "MIC", "setting": "[13]", "value": "> 32", "unit": "µg/mL"}, {"measurement": "MIC", "setting": "[14]", "value": "> 32", "unit": "µg/mL"}, {"measurement": "MIC", "setting": "[15]", "value": "> 32", "unit": "µg/mL"}, {"measurement": "MIC", "setting": "[16]", "value": 1.5, "unit": "µg/mL"}, {"measurement": "MIC", "setting": "[17]", "value": 32, "unit": "µg/mL"}]}
{"smiles": "C[C@H]1COc2c(N3CCN(C)CC3)c(F)cc3c(=O)c(C(=O)O)cn1c23.C[C@H]1COc2c(N3CCN(C)CC3)c(F)cc3c(=O)c(C(=O)O)cn1c23.O", "note": "[LEVOFLOXACIN]", "values": [{"measurement": "MIC", "setting": "[1]", "value": "> 32", "unit": "µg/mL"}, {"measurement": "MIC", "setting": "[2]", "value": "> 32", "unit": "µg/mL"}, {"measurement": "MIC", "setting": "[3]", "value": "> 32", "unit": "µg/mL"}, {"measurement": "MIC", "setting": "[4]", "value": "> 32", "unit": "µg/mL"}, {"measurement": "MIC", "setting": "[5]", "value": "> 32", "unit": "µg/mL"}, {"measurement": "MIC", "setting": "[6]", "value": 6, "unit": "µg/mL"}, {"measurement": "MIC", "setting": "[7]", "value": "> 32", "unit": "µg/mL"}, {"measurement": "MIC", "setting": "[8]", "value": "> 32", "unit": "µg/mL"}, {"measurement": "MIC", "setting": "[9]", "value": "> 32", "unit": "µg/mL"}, {"measurement": "MIC", "setting": "[11]", "value": 32, "unit": "µg/mL"}, {"measurement": "MIC", "setting": "[12]", "value": "> 32", "unit": "µg/mL"}, {"measurement": "MIC", "setting": "[13]", "value": "> 32", "unit": "µg/mL"}, {"measurement": "MIC", "setting": "[14]", "value": "> 32", "unit": "µg/mL"}, {"measurement": "MIC", "setting": "[15]", "value": "> 32", "unit": "µg/mL"}, {"measurement": "MIC", "setting": "[16]", "value": 12, "unit": "µg/mL"}, {"measurement": "MIC", "setting": "[17]", "value": "> 32", "unit": "µg/mL"}]}
